In patent US7985760B2, “Piperidinetriol derivatives as inhibitors of glycosyceramid synthase” (Actelion Pharmaceuticals Ltd., priority 2002, dated 2011) one finds IC50 data, which are given here for 13 compounds.

Read-outs that look alike come from different tables or passages of the source. Bounds are passed on as bounds.

Experiment [1] concerns the target T1, human recombinant GCS expressed in insect cells (Homo sapiens, UniProt Q16739).
T1 construct: made in house; host or cells: insect cells
T1 sequence (Q16739 1-394): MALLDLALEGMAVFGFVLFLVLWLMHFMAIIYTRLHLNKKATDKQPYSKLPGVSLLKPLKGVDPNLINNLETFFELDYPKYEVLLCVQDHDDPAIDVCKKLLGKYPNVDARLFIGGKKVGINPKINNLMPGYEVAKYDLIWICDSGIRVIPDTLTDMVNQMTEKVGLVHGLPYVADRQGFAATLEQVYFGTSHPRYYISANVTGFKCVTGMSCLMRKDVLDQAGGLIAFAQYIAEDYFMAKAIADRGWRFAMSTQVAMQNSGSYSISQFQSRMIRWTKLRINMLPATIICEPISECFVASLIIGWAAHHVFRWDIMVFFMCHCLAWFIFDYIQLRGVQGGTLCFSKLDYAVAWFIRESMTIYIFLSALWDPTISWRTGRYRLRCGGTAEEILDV
The experiment is described as follows: Inhibition of GCS. The format is biochemical.

For experiment [2], the target named is T2, non-lysosomal-β-glucocerebrosidase (Homo sapiens, UniProt Q9HCG7).
T2 construct: whole cell extracts of MCF7(a human breast carcinoma cell line) was used as the source of the enzyme; endogenous in cells; host or cells: MCF7 whole cell extract
T2 sequence (Q9HCG7 1-927): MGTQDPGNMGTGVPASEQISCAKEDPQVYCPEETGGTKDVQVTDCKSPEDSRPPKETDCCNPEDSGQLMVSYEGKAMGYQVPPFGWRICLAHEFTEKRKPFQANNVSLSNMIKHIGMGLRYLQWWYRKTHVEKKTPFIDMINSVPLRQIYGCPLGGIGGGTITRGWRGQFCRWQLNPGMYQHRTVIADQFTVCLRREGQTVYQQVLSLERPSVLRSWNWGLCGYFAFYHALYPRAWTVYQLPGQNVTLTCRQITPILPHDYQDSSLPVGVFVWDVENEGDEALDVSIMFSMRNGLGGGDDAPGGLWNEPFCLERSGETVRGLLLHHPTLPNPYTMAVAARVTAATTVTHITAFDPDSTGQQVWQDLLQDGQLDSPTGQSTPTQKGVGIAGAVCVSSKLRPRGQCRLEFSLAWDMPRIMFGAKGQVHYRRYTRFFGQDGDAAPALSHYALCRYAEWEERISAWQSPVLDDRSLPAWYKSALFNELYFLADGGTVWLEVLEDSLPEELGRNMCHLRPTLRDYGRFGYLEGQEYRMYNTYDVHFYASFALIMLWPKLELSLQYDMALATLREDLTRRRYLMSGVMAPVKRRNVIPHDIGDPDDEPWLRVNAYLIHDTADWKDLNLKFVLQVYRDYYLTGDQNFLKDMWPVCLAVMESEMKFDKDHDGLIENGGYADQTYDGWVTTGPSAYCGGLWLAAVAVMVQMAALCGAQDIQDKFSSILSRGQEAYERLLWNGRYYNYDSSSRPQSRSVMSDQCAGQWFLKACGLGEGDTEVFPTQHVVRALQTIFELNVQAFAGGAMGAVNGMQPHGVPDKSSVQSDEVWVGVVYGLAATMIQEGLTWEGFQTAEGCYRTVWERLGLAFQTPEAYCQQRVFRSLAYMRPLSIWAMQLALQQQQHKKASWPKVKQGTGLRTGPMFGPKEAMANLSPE
The experiment is described as follows: Inhibition of non-lysosomal-β-glucocerebrosidase. The format is biochemical. Particulars: whole cell extracts of MCF7 as enzyme source; 4-MU β-glucoside substrate; pH 5.8.

The target of experiment [3] is T3, human GCS (Homo sapiens, UniProt Q16739).
T3 construct: Human mammary epithelial cells (MCF-7) were cultured for 5-7 days, with varying concentrations of a compound of the invention; endogenous in cells; host or cells: MCF-7
T3 sequence (Q16739 1-394): T1 sequence (Q16739 1-394)
The experiment is described as follows: Cell-based IC50 for GCS inhibition by measuring glucosylceramide (GlcCer) depletion. Particulars: MCF-7 cells cultured for 5-7 days; GlcCer quantified by HPTLC; read-out: Inhibition of GCS Cellular-based (IC50 μM).

Where [4] appears, read: human recombinant GCS expressed in insect cells, read-out: Inhibition of GCS (IC50).

Regarding `COc1cc(OCc2ccccc2)ccc1CN1C[C@H](O)[C@@H](O)[C@H](O)[C@@H]1CO` [Example 1, 3,4,5-Piperidinetriol, 2-(hydroxymethyl)-1-[[2-methoxy-4-(phenylmethoxy)phenyl]methyl]-, (2S,3R,4R,5S)], the IC50 is 2700 nM in experiment [1] (setting [4]) and 110 nM in experiment [2].
For `CN(C)c1ccc(CN2C[C@H](O)[C@@H](O)[C@H](O)[C@@H]2CO)c(F)c1C#N` [Example 3, 3,4,5-Piperidinetriol, 1-[(3-cyano-4-dimethylamino-2-fluorophenyl)methyl]-2-(hydroxymethyl)-, (2S,3R,4R,5S)], the IC50 in experiment [1] (setting [4]) came out at 1800 nM; in experiment [2], 750 nM.
In the case of `O=C(NCc1ccc(F)cc1)c1ccc(CN2C[C@H](O)[C@@H](O)[C@H](O)[C@@H]2CO)cc1` [Example 6, Benzamide, N-[(4-fluorophenyl)methyl]-4-[[(2S,3R,4R,5S)-3,4,5-trihydroxy-2-(hydroxymethyl)-1-piperldinyl]methyl]-,], the IC50 is 670 nM in experiment [1] (setting [4]) and 69 nM in experiment [2].
In the same order, the values of `CC(NC(=O)c1ccc(CN2C[C@H](O)[C@@H](O)[C@H](O)[C@@H]2CO)cc1)c1ccccc1` (stereo partly drawn) [Example 7, Benzamide, N-[1-phenylethyl]4-[[(2S,3R,4R,5S)-3,4,5-trihydroxy-2-(hydroxymethyl)-1-piperidinyl]-methyl]-,] are 280 nM and 84 nM.
In the case of `C[C@@H](NC(=O)c1ccc(CN2C[C@H](O)[C@@H](O)[C@H](O)[C@@H]2CO)cc1)c1ccc(F)cc1` [Example 8, Benzamide, N-[1-(R)-(4-fluorophenyl)ethyl]4-[[(2S,3R,4R,5S)-3,4,5-trihydroxy-2-(hydroxymethyl)-1-piperidinyl]methyl]-,], the IC50 in experiment [1] (setting [4]) stood at 490 nM; in experiment [2] it was 42 nM.
For `OC[C@H]1[C@@H](O)[C@H](O)[C@@H](O)CN1Cc1ccc(OCc2ccccc2)c(Cl)c1` [Example 10, 3,4,5-Piperidinetriol, 2-(hydroxymethyl)-1-[[3-chloro-4-(phenylmethoxy)phenyl]methyl]-, (2S,3R,4R,5S)], the IC50 is 320 nM in experiment [1] (setting [4]) and 5 nM in experiment [2].
On to `OC[C@H]1[C@@H](O)[C@H](O)[C@@H](O)CN1Cc1ccc(OCc2ccccc2)cc1` [Example 11, 3,4,5-Piperidinetriol, 2-(hydroxymethyl)-1-[[4-(phenylmethoxy)phenyl]methyl]-, (2S,3R,4R,5S)], for which the 50% inhibitory concentration (IC50) in experiment [1] (setting [4]) was 210 nM; in experiment [2], 3 nM; in experiment [3] it was less than 0.01 µM.
`OC[C@H]1[C@@H](O)[C@H](O)[C@@H](O)CN1Cc1ccc(/C=C/c2ccccc2)cc1` [Example 13, 3,4,5-Piperidinetriol, 1-[(4-trans-styrylphenyl)methyl]-2-(hydroxymethyl)-, (2S,3R,4R,5S)]: the half-inhibitory concentration (IC50) in experiment [1] (setting [4]) amounted to 290 nM; in experiment [2], 2 nM.
On the same counts, the results for `O=C(c1ccc(CN2C[C@H](O)[C@@H](O)[C@H](O)[C@@H]2CO)cc1)N1CCCc2ccccc21` [Example 14] are 1400 nM and 19 nM.
In the same order, the values of `CCN(CC)c1ccc(CN2C[C@H](O)[C@@H](O)[C@H](O)[C@@H]2CO)c(F)c1C#N` [Example 18, 3,4,5-Piperidinetriol, 2-(hydroxymethyl)-1-[(3-cyano-4-(diethylamino)-2-fluorophenyl)-methyl]-, (2S,3R,4R,5S)] are 550 nM and 120 nM.
For `OC[C@H]1[C@@H](O)[C@H](O)[C@@H](O)CN1Cc1ccc(Oc2ccccc2)cc1` [Example 19, 3,4,5-Piperidinetriol, 2-(hydroxymethyl)-1-[(4-phenoxyphenyl)methyl]-, (2S,3R,4R,5S)], the IC50 worked out at 410 nM in experiment [1] (setting [4]) and 4 nM in experiment [2].
For the compound `OC[C@H]1[C@@H](O)[C@H](O)[C@@H](O)CN1Cc1ccc2c(c1)OCCO2` [Example 20, 3,4,5-Piperidinetriol, 1-[(3,4-ethylenedioxyphenyl)methyl]-2-(hydroxymethyl)-, (2S,3R,4R,5S)], the 50% inhibitory concentration (IC50) in experiment [1] (setting [4]) came to 2500 nM; in experiment [2], 55 nM.
On to `O=S(=O)(Nc1ccc(CN2C[C@H](O)[C@@H](O)[C@H](O)[C@@H]2CO)cc1)c1ccccc1` [Example 22, Benzenesulfonamide, N-[4-[[(2S,3S,4R,5S)-3,4,5-trihydroxy-2-(hydroxymethyl)-1-piperidinyl]methyl]-phenyl]-,], for which the half-inhibitory concentration (IC50) in experiment [1] and in experiment [2] was 910 nM in each case.
